Measurements: US6265577A, “Pyrazolopyridylpyridazinone derivatives and process for the preparation thereof” (Kyorin Pharmaceuticals Co., Ltd., priority 1996, dated 2001)
≈ marks a conversion by molar mass, not a printed value.

Assays:
Type in all cases: biochemical
[1] = biological target: T1, phosphodiesterase II from heart (Cavia porcellus, UniProt A0A286XUV5); assay: Measurement of phosphodiesterase-inhibiting activity, heart, II; conditions: guinea pig heart; 1 μM cAMP or cGMP substrate, 60 minutes at 30° C., EIA
T1 construct: fractions were extracted from respiratory tract and heart of guinea pig; from tissue; host or cells: guinea pig heart
T1 sequence (A0A286XUV5 22-936): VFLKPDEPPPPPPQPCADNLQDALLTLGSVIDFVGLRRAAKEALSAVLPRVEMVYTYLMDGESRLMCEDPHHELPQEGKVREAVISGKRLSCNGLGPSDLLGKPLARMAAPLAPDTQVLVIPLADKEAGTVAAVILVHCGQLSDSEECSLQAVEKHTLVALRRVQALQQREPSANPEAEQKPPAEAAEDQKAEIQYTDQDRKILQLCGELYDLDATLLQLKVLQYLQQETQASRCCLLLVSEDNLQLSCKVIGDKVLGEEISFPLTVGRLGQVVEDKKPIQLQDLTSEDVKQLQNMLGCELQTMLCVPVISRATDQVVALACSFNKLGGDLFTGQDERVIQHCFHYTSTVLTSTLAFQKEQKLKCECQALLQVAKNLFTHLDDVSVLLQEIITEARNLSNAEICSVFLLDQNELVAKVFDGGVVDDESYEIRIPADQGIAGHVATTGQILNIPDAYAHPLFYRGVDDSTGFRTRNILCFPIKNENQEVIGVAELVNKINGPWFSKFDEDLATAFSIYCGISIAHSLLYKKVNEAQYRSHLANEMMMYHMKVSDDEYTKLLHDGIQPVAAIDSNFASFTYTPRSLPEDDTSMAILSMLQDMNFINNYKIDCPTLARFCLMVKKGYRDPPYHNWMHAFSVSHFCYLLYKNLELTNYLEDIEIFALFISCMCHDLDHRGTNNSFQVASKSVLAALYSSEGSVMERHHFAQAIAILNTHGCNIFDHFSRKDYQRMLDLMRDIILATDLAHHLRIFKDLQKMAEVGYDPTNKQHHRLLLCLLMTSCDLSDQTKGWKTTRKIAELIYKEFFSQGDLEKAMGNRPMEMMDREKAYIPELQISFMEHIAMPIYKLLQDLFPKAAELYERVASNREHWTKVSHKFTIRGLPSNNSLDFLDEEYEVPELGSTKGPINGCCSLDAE
Description: (§1) Measurement of phosphodiesterase-inhibiting activity
(§2) Phosphodiestorase-containing fractions were extracted from respiratory tract and heart of guinea pig according to the method of Nicholson et al (Br. J. Pharmacol., 97, 889-897 (1989)), and used as enzyme solutions. The measurement of phosphodiesterase-inhibiting activity was performed by quantitatively determining (Linden et al, J. Immunol. Methods., 151, 209-216 (1992)) the cyclic AMP (cAMP) or cyclic GMP (cGMP) that remains as a result of enzymic reaction (Thompson et al, Biochemistry, 10, 311-316 (1971)) through enzyme immunoassay (EIA).
(§3) This was performed according to the method of Thompson et al. The enzyme solution was placed in a test tube, and 1 μM of cAMP or cGMP was added as a substrate. After reacting for 60 minutes at 30° C., the test tube was dipped for 2 minutes into boiling bath to inactivate phosphodiesterase, thus stopping the reaction. The testing compound was added to the test tube simultaneously with substrate.
(§4) 2) Quantitative determination through EIA […]

[2] = biological target: phosphodiesterase I from heart; assay: Measurement of phosphodiesterase-inhibiting activity, heart, I; conditions: guinea pig heart; 1 μM cAMP or cGMP substrate, 60 minutes at 30° C., EIA
Description: as §1, §2, §3, §4

[3] = biological target: phosphodiesterase IV from respiratory tract; assay: Measurement of phosphodiesterase-inhibiting activity, respiratory tract, IV; conditions: guinea pig respiratory tract; 1 μM cAMP or cGMP substrate, 60 minutes at 30° C., EIA
Description: as §1, §2, §3, §4

[4] = biological target: T2, phosphodiesterase II from respiratory tract (Cavia porcellus, UniProt A0A286XUV5); assay: Measurement of phosphodiesterase-inhibiting activity, respiratory tract, II; conditions: guinea pig respiratory tract; 1 μM cAMP or cGMP substrate, 60 minutes at 30° C., EIA
T2 construct: fractions were extracted from respiratory tract and heart of guinea pig; from tissue; host or cells: guinea pig respiratory tract
T2 sequence (A0A286XUV5 22-936): T1 sequence (A0A286XUV5 22-936)
Description: as §1, §2, §3, §4

[5] = biological target: T3, phosphodiesterase III from respiratory tract (Cavia porcellus, UniProt H0VIU9); assay: Measurement of phosphodiesterase-inhibiting activity, respiratory tract, III; conditions: guinea pig respiratory tract; 1 μM cAMP or cGMP substrate, 60 minutes at 30° C., EIA
T3 construct: fractions were extracted from respiratory tract and heart of guinea pig; from tissue; host or cells: guinea pig respiratory tract
T3 sequence (H0VIU9 1-1132): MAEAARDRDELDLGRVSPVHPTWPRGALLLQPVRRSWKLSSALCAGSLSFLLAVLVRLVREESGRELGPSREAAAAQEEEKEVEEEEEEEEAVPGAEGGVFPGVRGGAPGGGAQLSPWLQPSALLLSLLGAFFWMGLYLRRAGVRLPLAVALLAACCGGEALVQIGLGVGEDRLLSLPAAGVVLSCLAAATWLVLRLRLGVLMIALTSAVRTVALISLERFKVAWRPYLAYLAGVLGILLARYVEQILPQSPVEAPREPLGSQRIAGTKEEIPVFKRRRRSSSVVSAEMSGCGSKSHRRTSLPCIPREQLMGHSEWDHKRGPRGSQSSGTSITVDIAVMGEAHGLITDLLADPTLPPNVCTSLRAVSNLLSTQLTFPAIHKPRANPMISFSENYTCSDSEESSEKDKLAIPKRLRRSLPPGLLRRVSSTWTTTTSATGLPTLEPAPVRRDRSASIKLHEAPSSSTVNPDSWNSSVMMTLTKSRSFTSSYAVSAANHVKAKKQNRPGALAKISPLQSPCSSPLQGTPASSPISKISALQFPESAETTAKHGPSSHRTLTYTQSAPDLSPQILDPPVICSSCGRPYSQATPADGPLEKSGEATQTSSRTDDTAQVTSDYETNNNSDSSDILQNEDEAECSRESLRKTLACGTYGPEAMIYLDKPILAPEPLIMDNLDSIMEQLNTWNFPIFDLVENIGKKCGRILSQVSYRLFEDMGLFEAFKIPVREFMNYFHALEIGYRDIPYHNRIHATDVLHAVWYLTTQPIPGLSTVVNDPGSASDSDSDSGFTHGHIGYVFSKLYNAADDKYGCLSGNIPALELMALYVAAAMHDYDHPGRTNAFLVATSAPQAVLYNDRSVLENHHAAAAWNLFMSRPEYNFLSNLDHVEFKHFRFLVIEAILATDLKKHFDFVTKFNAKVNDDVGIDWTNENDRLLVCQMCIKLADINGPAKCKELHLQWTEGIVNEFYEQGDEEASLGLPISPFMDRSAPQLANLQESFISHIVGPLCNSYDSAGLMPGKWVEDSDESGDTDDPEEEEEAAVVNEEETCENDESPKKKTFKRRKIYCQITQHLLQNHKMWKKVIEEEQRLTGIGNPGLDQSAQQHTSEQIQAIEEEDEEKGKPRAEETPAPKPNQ
Description: as §1, §2, §3, §4

[6] = biological target: T4, phosphodiesterase III from heart (Cavia porcellus, UniProt H0VIU9); assay: Measurement of phosphodiesterase-inhibiting activity, heart, III; conditions: guinea pig heart; 1 μM cAMP or cGMP substrate, 60 minutes at 30° C., EIA
T4 construct: fractions were extracted from respiratory tract and heart of guinea pig; from tissue; host or cells: guinea pig heart
T4 sequence (H0VIU9 1-1132): T3 sequence (H0VIU9 1-1132)
Description: as §1, §2, §3, §4

[7] = biological target: T5, phosphodiesterase V from respiratory tract (Cavia porcellus, UniProt H0VD23); assay: Measurement of phosphodiesterase-inhibiting activity, respiratory tract, V; conditions: guinea pig respiratory tract; 1 μM cAMP or cGMP substrate, 60 minutes at 30° C., EIA
T5 construct: fractions were extracted from respiratory tract and heart of guinea pig; from tissue; host or cells: guinea pig respiratory tract
Description: as §1, §2, §3, §4

- IC50 [1]: > 111 µM
- IC50 Heart I [2]: > 30 µg/mL
- IC50 Respiratory tract IV [3]: 5 µg/mL (≈ 18.5 µM)
- IC50 [4]: > 111 µM
- IC50 [5]: 14.8 µM
- IC50 [6]: 18.5 µM
- IC50 [7]: 0.37 µM
SMILES: CC1CC(=O)NN=C1c1c(C(C)C)nn2ccccc12 (stereo not shown) [Example 36]
